Data published in PubChem BioAssay (NCI).
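Assay format: 96-well plates, 48-hour exposure. Abbreviation: GI50, concentration required for 50% inhibition of growth. Definition used: TGI = concentration required for complete inhibition of growth.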

Key:
Test in all cases: NCI anticancer screen, dose series, 48 h
[1] = system: NCI-H23 lung
[2] = system: PC-3 prostate
[3] = system: ACHN renal
[4] = system: SNB-75 CNS
[5] = system: NCI-H460 lung
[6] = system: SF-268 CNS
[7] = system: CCRF-CEM leukemia
[8] = system: 786-0 renal
[9] = system: RPMI-8226 leukemia
[10] = system: HOP-92 NSCLC
[11] = system: DU-145 prostate
[12] = system: HCT-15 colon
[13] = system: SK-OV-3 ovarian
[14] = system: CAKI-1 renal
[15] = system: SF-539 CNS
[16] = system: UACC-62 melanoma
[17] = system: M14 melanoma
[18] = system: OVCAR-5 ovarian
[19] = system: A498 renal
[20] = system: NCI-H522 lung
[21] = system: MALME-3M melanoma
[22] = system: IGROV1 ovarian
[23] = system: UO-31 renal
[24] = system: RXF 393 renal
[25] = system: TK-10 renal
[26] = system: SK-MEL-28 melanoma
[27] = system: NCI/ADR-RES ovarian
[28] = system: HT29 colon

Structure (SMILES): NC(N)=Nc1ccc(Oc2cccc(Nc3ccc(Br)c(C(F)(F)F)c3)c2)cc1
- GI50 [1]: 1670 nM
- TGI [1]: 3370 nM
- GI50 [2]: 1400 nM
- TGI [2]: 2730 nM
- GI50 [3]: 2690 nM
- TGI [3]: 7840 nM
- GI50 [4]: 1230 nM
- TGI [4]: 2560 nM
- GI50 [5]: 1870 nM
- TGI [5]: 3510 nM
- GI50 [6]: 1680 nM
- TGI [6]: 3450 nM
- GI50 [7]: 1970 nM
- TGI [7]: 5500 nM
- GI50 [8]: 1600 nM
- TGI [8]: 3120 nM
- GI50 [9]: 1970 nM
- TGI [9]: 4610 nM
- GI50 [10]: 829 nM
- TGI [10]: 2160 nM
- GI50 [11]: 1800 nM
- TGI [11]: 3310 nM
- GI50 [12]: 2050 nM
- TGI [12]: 4830 nM
- GI50 [13]: 2110 nM
- TGI [13]: 5120 nM
- GI50 [14]: 1600 nM
- TGI [14]: 3140 nM
- GI50 [15]: 1630 nM
- TGI [15]: 3090 nM
- GI50 [16]: 1770 nM
- TGI [16]: 3280 nM
- GI50 [17]: 1690 nM
- TGI [17]: 3290 nM
- GI50 [18]: 1630 nM
- TGI [18]: 3070 nM
- GI50 [19]: 1490 nM
- TGI [19]: 2910 nM
- GI50 [20]: 1600 nM
- TGI [20]: 3350 nM
- GI50 [21]: 1800 nM
- TGI [21]: 4040 nM
- GI50 [22]: 1190 nM
- TGI [22]: 2760 nM
- GI50 [23]: 3080 nM
- TGI [23]: 11500 nM
- GI50 [24]: 1750 nM
- TGI [24]: 3270 nM
- GI50 [25]: 1880 nM
- TGI [25]: 4110 nM
- GI50 [26]: 1770 nM
- TGI [26]: 3220 nM
- GI50 [27]: 14600 nM
- TGI [27]: 37500 nM
- GI50 [28]: 1560 nM
- TGI [28]: 3120 nM
